According to paper PMC9786614, “Nerve Targeting via Myelin Protein Zero and the Impact of Dimerization on Binding Affinity” (Molecules, 2022):
Entries after “also recorded” stand apart in the source; their conditions may differ. Like-named read-outs stand apart in the source and are kept apart here. Starred links: 1 amine or outer side, 2 acyl side, 3 side chain; linkers in the order of their positions; H or OH if unused. Positions of bridges follow the written chain, without caps; N, C: chain ends. Residues, ends and D or L forms follow the SMILES beside them. Chains are numbered I, II in the order given. *: point of attachment. X1 = CC1(C)C(/C=C/C=C/C=C2/N(CCCCCC(=O)NCCN3C(=O)CC([*:1])C3=O)c3ccc(S(=O)(=O)O)cc3C2(C)C)=[N+](CCCCCC(=O)NCCN2C(=O)CC([*:2])C2=O)c2ccc(S(=O)(=O)[O-])cc21; X2 = CC1(C)C(=C/C=C/C=C/C2=[N+](CCCCS(=O)(=O)O)c3ccc(S(=O)(=O)[O-])cc3C2(C)C)N(CCCCCC(=O)NCCN2C(=O)CC(*)C2=O)c2ccc(S(=O)(=O)O)cc21

Key:
serum protein = experiment: Serum protein binding; type: in vitro ADME; conditions: serum; protocol modified from Hensbergen et al. [34]; mean ± spread
Experimental: (§1) The molar extinction coefficient (ε), quantum yield (QY), brightness, lipophilicity, serum protein binding, photo- and chemical stability, and stacking behavior were determined according to a slight modification of the protocol put forward by Hensbergen et al.. Sulfonate-(SO3)Cy5(SO3)-COOH [27] was measured and used as a control for QY.

[1] = Stacking behavior (absorbance spectra, dilution series); type: physicochemical; conditions: absorbance spectra in water, dilution series 8 μM to 0.5 μM, normalized
Experimental: as §1
To determine the stacking behavior of the mono- and bi-labeled compounds and their corresponding dyes, a dilution series of Cy5-(P0_101–125)2 and Cy5-P0_101–125 were made, consisting of the dye concentrations ranging from 8 μM to 0.5 μM.
Normalization of the data set for stacking behavior was performed using Equation (1):(1) x(normalized)=(x−xmin)/range of x where range of x= xmax−xmin .

[2] = Photostability (photobleaching); type: physicochemical; conditions: illumination in 5 min cycles, 30 min in total, Storz D-Light P system at 50 mm, fluorescence read-out
Experimental: as §1
For photostability measurements, the cuvettes were sealed and illuminated for 5 min (30 min in total) by a modified Storz D-Light P fluorescence imaging system at a distance of 50 mm in a dark environment. After each illumination cycle, the fluorescence intensity was determined.

RT4-D12 Schwannoma cells [3] = experiment: Fluorescence confocal microscopy of P0 staining; type: cell-based; conditions: 1 h at 4 °C
Experimental: RT4-D12 Schwannoma cells were trypsinized and seeded onto 35 mm culture dishes that contained a glass insert (MatTek co, Emu Plains, New South Wales, Australia) two days prior to the imaging experiment. Then, 0.5–1000 nM Cy5-P0_101–125 or Cy5-(P0_101–125)2 was added one hour prior to imaging (incubation at 4 °C; n = 3 per tracer). Peptide solutions were sonicated for 20 s prior to addition to prevent aggregation of the peptide in solution. Lysotracker (lysotracker green; 2 µL/mL DND-26, Thermo Fisher, Waltham, MA, USA) and Hoechst (33,342, 1 mg/mL, 1:500, Thermo Fisher) were added to the to provide staining of lysosomes and the nucleus, respectively.
Images were acquired following Cy5 excitation at 633 nm. Emission was collected between 650–700 nm. For visualization of the lysosomes in the cells, a 488 nm laser was used for excitation, while emission was collected between 500–550 nm. Hoechst was excited at 405 nm, and emission was collected between 410–460 nm. Fluorescence confocal images were acquired using a Leica SP8 WL at sequential settings and 63× magnification. Image analysis was performed using Leica Confocal Software (Leica Microsystems). Semi-quantitative analysis of the Cy5 signal intensity was performed using the quantification tool in Fiji software according to previously described methods.

[4] = not given; remark: listed apart in the source
myelin protein zero (P0) = molecular target: T1, myelin protein zero (P0) (Rattus norvegicus, UniProt P06907); experiment: Saturation binding by flow cytometry on P0-expressing Schwannoma cells; conditions: for Nonspecific binding: saturation binding fit, RT4-D12 cells; for Nonspecific binding / Kd: flow cytometry; for Kd: saturation binding, RT4-D12 Schwannoma cells, 0–2000 nM tracer in 0.1% BSA in PBS, 1 h at 4 °C, triplicate, One site—Total fit
T1 construct: RT4-D12 Schwannoma cells were selected for in vitro experiments based on their origin and their specific P0-expressing properties; endogenous in cells; host or cells: RT4-D12 Schwannoma cells
T1 sequence (P06907 30-248): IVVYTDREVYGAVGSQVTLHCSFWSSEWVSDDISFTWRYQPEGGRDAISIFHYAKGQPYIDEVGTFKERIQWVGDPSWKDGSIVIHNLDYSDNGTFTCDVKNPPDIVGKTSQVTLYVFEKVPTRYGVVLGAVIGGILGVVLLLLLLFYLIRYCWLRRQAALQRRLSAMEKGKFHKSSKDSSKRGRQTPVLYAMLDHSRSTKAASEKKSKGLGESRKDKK
Experimental: RT4-D12 Schwannoma cells were selected for in vitro experiments based on their origin and their specific P0-expressing properties.
All chemicals were received from Actu-All Chemical (Oss, The Netherlands), Sigma Aldrich (St. Louis, MO, USA), Tokyo Chemical Industry (Tokyo, Japan), Biosolve BV (Valkenswaard, The Netherlands), VWR Chemicals (Solon, OH, USA) and used without further purification. DMF and DMSO were dried over four Å molecular sieves at least for 24 h prior to use. Preparative high-pressure liquid chromatography (prep-HPLC) was performed on a Waters HPLC system (Waters Chromatography B.V., Etten-Leur, The Netherlands) using a 2545 quaternary gradient module pump and a 2489 UV detector. Dr. Maisch ReproSil-Pur 120 C18-AQ 10 μM (250 mm × 20 mm) column (Dr. Maisch HPLC GmbH, Ammerbuch-Entringen, Germany) was applied operating flow rate of 12 mL/min. HPLC analysis was carried out on Waters Alliance 2690 using a Waters symmetry C18 column (2.1 × 150 mm) with a gradient of 0.1% TFA in H2O/MeCN 95:5 to 0.1% TFA in H2O/MeCN 5:95 in 17 min (0.3 mL/min). Mass spectrometry was performed on a Microflex LT/SH MALDI-TOF mass spectrometer (Bruker, Billerica, MA, USA). Lyophilization was performed with a VaCo 2-II lyophilizer (Zirbus technology GmbH, Bad Grund (Harz), Germany). Absorption spectrometry was performed using a UV1280 UV–vis spectrometer (Shimadzu, Kyoto, Japan), and fluorescence spectrometry was performed using an LS55 (Perkin Elmer, Waltham, MA, USA). The fluorescence spectra at different temperatures were measured on an Agilent Cary Eclipse (Agilent Cary Eclipse, Santa Clara, CA, USA). NMR spectra were measured on a Bruker Avance 300 (Bruker, Billerica, MA, USA) operating at 300 MHz for 1 H and 75.00 MHz for 13 C, using the residual solvents (CDCl3 and DMSO-d6) as internal references, and on a Bruker Advance III spectrometer operating at 600 MHz for 1H and equipped with a 2.5 mm PH SEI probe (Bruker, Billerica, MA, USA). For photostability, a prototype D-Light P surgical laparoscope (KARL STORZ, Tuttlingen, Germany) was used. Fluorescence confocal imaging was performed using a SP8 WLL confocal microscope (Leica Microsystems, Wetzlar, Germany). Obtained images were analyzed using Leica Confocal Software (Leica Microsystems). Mean fluorescence intensity values per sample were measured using a LSRII flow cytometer (BD Biosciences, Franklin Lakes, NJ, USA) with APC-A settings (635 nm laser and 750 nm long-pass filter). The binding constant (KD) of the normalized geometric means were fitted with equations in the Prism 5 software (GraphPad, San Diego, CA, USA). Statistical evaluation (Student’s t-test) for all properties was performed in the Prism 5 software. […]
Flow cytometric analysis was performed using RT4-D12 Schwannoma cells after incubation with either Cy5-P0_101–125 or Cy5-(P0_101–125)2. […] Cells were gated on Forward Scatter and Side Scatter, and a minimum of 10,000 viable cells were analyzed per sample. […]
(§2) For evaluation of the differences in signal intensity per concentration between Cy5-P0_101–125 and Cy5-(P0_101–125)2 (5–1000 nM), the mean signal intensity of Cy5-P0_101–125 at 1000nM was set at 100%, and intensities measured at other tracer concentrations or for Cy5-(P0_101–125)2 were calculated as % increase or decrease from this point. The KD values of the evaluated peptides were calculated using the “Binding-Saturation, One site—Total” nonlinear regression equation, as described previously.

[5] = not given; remark: listed apart in the source
[6] = not given; remark: listed apart in the source
[7] = not given; remark: listed apart in the source
Serum protein binding = type: in vitro ADME; conditions: protocol modified from Hensbergen et al. [34]; mean ± spread
Experimental: as §1

[8] = Stability towards glutathione; type: physicochemical
Experimental: For the stability towards glutathione, which is used as a measure of stability towards thiols and amines in vivo, 125 µL of a 2 mM solution of the compound in (0.1 M HEPES pH 7.4, pre-sparged with N2) was added to 125 µL of a 4 mM solution of reduced glutathione in 0.1M HEPES pH 7.4 (pre-sparged with N2). The solutions were mixed and then placed in a sample manager. A sample was analyzed at 37 degrees over 6 h in total to determine the amount of compound relative to t = 0.

Lipophilicity logP(o/w) = type: physicochemical; conditions: octanol/water; protocol modified from Hensbergen et al. [34]; mean ± spread
Experimental: as §1

RT4-D12 Schwannoma cells [9] = experiment: Flow cytometry quantification of fluorescence signal intensity per tracer concentration; type: cell-based
Experimental: Flow cytometric analysis was performed using RT4-D12 Schwannoma cells after incubation with either Cy5-P0_101–125 or Cy5-(P0_101–125)2. For saturation binding experiments, Cy5-labelled peptides were added to the cell samples in a range of 0–2000 nM in 50 µL of 0.1% bovine serum albumin (BSA) in PBS, as previously described. After 1 h of incubation at 4 °C, the cells were washed two times with 300 µL of 0.1% BSA in PBS and re-suspended in 300 µL of 0.1% BSA. Cells were gated on Forward Scatter and Side Scatter, and a minimum of 10,000 viable cells were analyzed per sample. All experiments were performed in triplicate.
as §2

[10] = free dye; previously reported; ref Spa et al. [27]; cited from earlier work
Excerpt: Table 1 Chemo- and photophysical properties of mono-labeled Cy5-P0_101–125 and bi- labeled Cy5-(P0_101–125)2 and corresponding free cyanine dyes. | column: Sulfonate-(SO3)Cy5(SO3)-COOH *

| Compound | fraction unbound (serum protein) | λEm in H2O/PBS [nm] | Photobleaching, % [2] [%] | P0-related staining at 100 nM tracer (RT4-D12 Schwannoma cells [3]) | Brightness in PBS [4] [M⁻¹ cm⁻¹] | Nonspecific binding (myelin protein zero (P0)) | Kd (myelin protein zero (P0)) [nM] | λex in H2O/PBS [5] [nm] | loss of fluorescence intensity with temperature increase [6] [%] | stokes shift [7] [nm] | further results |
| --- | --- | --- | --- | --- | --- | --- | --- | --- | --- | --- | --- |
| CC[C@H](C)[C@H](NC(=O)[C@H](CC(=O)O)NC(=O)[C@@H]1CCCN1C(=O)[C@@H]1CCCN1C(=O)[C@H](CC(N)=O)NC(=O)[C@H](CCCCN)NC(C)=O)C(=O)N[C@H](C(=O)NCC(=O)N[C@@H](CCCCN)C(=O)N[C@H](C(=O)N[C@@H](CO)C(=O)N[C@@H](CCC(N)=O)C(=O)N[C@H](C(=O)N[C@H](C(=O)N[C@@H](CC(C)C)C(=O)N[C@@H](Cc1ccc(O)cc1)C(=O)N[C@H](C(=O)N[C@@H](Cc1ccccc1)C(=O)N[C@@H](CCC(=O)O)C(=O)N[C@@H](CCCCN)C(=O)N[C@H](C(=O)N1CCC[C@H]1C(=O)N[C@H](C(=O)N[C@@H](CCCNC(=N)N)C(=O)N[C@@H](Cc1ccc(O)cc1)C(=O)N[C@@H](CSC1CC(=O)N(CCNC(=O)CCCCCN2C(=C/C=C/C=C/C3=[N+](CCCCS(=O)(=O)O)c4ccc(S(=O)(=O)[O-])cc4C3(C)C)C(C)(C)c3cc(S(=O)(=O)O)ccc32)C1=O)C(N)=O)[C@@H](C)O)C(C)C)C(C)C)[C@@H](C)O)C(C)C)[C@@H](C)O)C(C)C (stereo partly shown) [Cy5-P0_101–125] (Ac-KNPPDIVGKTSQVTLYVFEKVPTRYC(X2)-NH2) | 0.11 | 671 | 94 | Only a faint P0-related signal | 55.7 | 0.020 | 105 | 650 | 70 | 21 | stacking behavior (dye stacking / aggregation) [1]: higher “shoulder peak”; also recorded: typical “stacking shoulder” appears only for a mono-labeled Cy5-P0_101–125 at higher concentration |
| COOH-(SO3)Cy5(SO3)-COOH [reference compound] | – | – | 95 | – | – | – | – | – | – | – | Serum protein binding, % (Serum protein binding): 70 ± 4%; Glutathione stability (at 6 h), % ([8]; 2 mM compound mixed 1:1 with 4 mM reduced glutathione, 0.1 M HEPES pH 7.4 (N2 sparged), 37 degrees, amount relative to t = 0): 95%; logP(o/w) (Lipophilicity logP(o/w)): −1.62 ± 0.01 |
| I: Ac-KNPPDIVGKTSQVTLYVFEKVPTRYC-NH2 / II: Ac-KNPPDIVGKTSQVTLYVFEKVPTRYC-NH2 (linker I:26-II:26 via X1) [Cy5-(P0_101–125)2] | 0.37 | 671 | 71 | cells could be clearly discriminated | 49.2 | 0.022 | 70.3 | 654 | 65 | 17 | remaining at 6 h, 1 mM ([8]; HEPES buffer with reduced glutathione, 2 mM compound mixed 1:1 with 4 mM reduced glutathione, 0.1 M HEPES pH 7.4 (N2 sparged), 37 degrees, amount relative to t = 0): 96%; degradation in glutathione stability test ([8]; reduced glutathione, 0.1 M HEPES pH 7.4, 37 degrees, 6 h): 4%; logP (Lipophilicity logP(o/w)): -0.57 ± 0.01; fold increase in affinity compared to Cy5-P0_101–125 (myelin protein zero (P0); from KD values, p = 0.003): 1.5 fold; fold increase in staining efficiency compared to Cy5-P0_101–125 (RT4-D12 Schwannoma cells [9]; P0 expressing Schwannoma cells, equal staining at 4-fold lower concentration): ~4 fold; higher fluorescence signal intensity compared to Cy5-P0_101–125 at the same concentration, range (RT4-D12 Schwannoma cells [9]; flow cytometry, tracer 5–1000 nM, RT4-D12 cells): 34–59%; higher fluorescence signal intensity compared to Cy5-P0_101–125 at the same concentration, average (RT4-D12 Schwannoma cells [9]; flow cytometry, tracer 5–1000 nM, RT4-D12 cells, p < 0.00001): 44% |
| Sulfonate-(SO3)Cy5(SO3)-COOH | – | – | – | – | – | – | – | – | – | – | Glutathione stability (at 6 h), % [10]: 95%; Net charge [10]: −2; Photobleaching, % [10]: 93%; Serum protein binding, % [10]: 49 ± 8%; logP(o/w) [10]: −1.42 ± 0.00 |
